From the METLIN SMRT retention time set (Domingo-Almenara et al. 2019)

Assay: gradient 5% acetonitrile 3 min, to 50% in 2 min, to 85% in 15 min, held 3 min, 100 µL/min
Settings: column: Zorbax Extend-C18 2.1 x 50 mm; eluents: water / acetonitrile, 0.1% formic acid
How it was run: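 Each retention time is based on an adduct peak selected computationally and verified by manual inspection. Measurements used HPLC–quadrupole time-of-flight mass spectrometry in positive and negative ionization mode on mixtures of ~100 pure standards. Chromatography ran on a Zorbax Extend-C18 column (2.1 × 50 mm, 1.8 μm) at 100 μL/min with water and acetonitrile, each containing 0.1% formic acid, and dead and dwell volumes of 40 μL and 900 μL.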

| Compound | RP-LC retention time |
| --- | --- |
| O=C(CC1CCCCC1)NC1CCN(c2cc(-c3cccnc3)[nH]n2)CC1 | 633 s |
| O=C(Cc1ccc(F)cc1)N(CC1CCOC1)C1CC1 (centres undefined) | 794 s |
| CCOc1ccc(CC(=O)N2CCN(c3c(C)n(C)c(=O)n(C)c3=O)CC2)cc1OCC | 742 s |
| N#Cc1ccc2c(c1)N(CCCN1CCC(O)CC1)c1ccccc1S2 | 743 s |
| Cc1ccc(CN2CC(=O)N(c3cccc(C)c3)[C@@H]3CS(=O)(=O)C[C@@H]32)cc1 | 855 s |
| CCNC(=O)N1CCCC(c2cccc(C(=O)NC3CCCC3)c2)C1 (centres undefined) | 764 s |
| CC(C)Cc1noc(C2(F)CCN(S(=O)(=O)c3ccccc3)CC2)n1 | 691 s |
| COCc1nncn1C1CCN(S(=O)(=O)c2cccc(OC)c2)CC1 | 751 s |
| Cc1cccc(Oc2cc(N3CCC(C(=O)NCCC4=CCCCC4)CC3)ncn2)c1C | 1110 s |
| COc1cc2c(cc1OC)C(=O)C(CC1CCN(Cc3ccccc3)CC1)C2 (centres undefined) | 690 s |
| Cn1cnc(S(=O)(=O)N2CCC(c3noc(-c4ccccn4)n3)C2)c1 (centres undefined) | 622 s |
| O=C(Cn1nc(S(=O)(=O)c2ccc(Cl)cc2)ccc1=O)N1CCN(c2ccc(F)cc2)CC1 | 910 s |
| Cc1ccc(-c2noc(Cn3nc(-c4ccc5c(c4)OCO5)ccc3=O)n2)cc1C | 1060 s |
| O=C(NCc1ccc(F)cc1F)c1ccc(NC(=O)C2CC2)cc1N1CCOCC1 | 798 s |
| CCN(CC)S(=O)(=O)c1ccc(-n2cnc(C(=O)NCc3ccc(OC)c(OC)c3)c2)cc1 | 766 s |
| N#CCNC(=O)C1CC(=O)N(CCc2c[nH]c3ccc(F)cc23)C1 (centres undefined) | 661 s |
| O=C(NCCCN1CCOCC1)c1c(OCC2CC2)cc(=O)n2c1CCCCC2 | 568 s |
| Cc1cc(N2CCCC2)nc(N2CCN(C(=O)C3CCCC3)CC2)n1 | 670 s |
| CCN(CC)CCNC(=O)C1CCN(C2=NS(=O)(=O)C(c3ccc(Cl)cc3)=C2C)CC1 | 658 s |
| Cc1ccc(CNC(=O)Cn2ncc3c(c2=O)N(CC2CC2)C(=O)CS3)cc1 | 784 s |
| COCCNS(=O)(=O)c1cc2c(cc1C)CCN2C(C)=O | 657 s |
| O=C(NCc1ccco1)C(=O)NCC1OCCN1C(=O)c1ccc(Cl)cc1 (centres undefined) | 705 s |
| Cc1cc(C)cc(-n2ccnc(NC(=O)Nc3ccc(C)c(F)c3)c2=O)c1 | 1140 s |

| Compound | RP-LC retention time |
| --- | --- |
| O=C(NOCC1CC1)c1ccc(F)c(F)c1Nc1ccc(I)cc1Cl | 1150 s |
| O=c1cccnn1CCNS(=O)(=O)c1ccc(F)c(Cl)c1 | 665 s |
| Cc1ccc(NC(=O)NCCC2CCN(S(=O)(=O)c3ccc(F)cc3)CC2)cc1 | 925 s |
| Cc1noc(C2CN(CCc3ccccc3)CC23CCCC3)n1 (centres undefined) | 674 s |
| Cc1nn(C)c(C)c1-c1cc(C(=O)O)[nH]n1 | 574 s |
| Cc1c(Cl)cccc1S(=O)(=O)N1CCc2c(c(-c3nnc(-c4ccccc4F)o3)nn2C)C1 | 1050 s |
| CNC(=O)C1CCN(C2=NS(=O)(=O)C(c3ccc(C(C)C)cc3)=C2C)CC1 | 777 s |
| CCOCCOC1CCN(S(=O)(=O)c2cccc(OC)c2)CC1 | 881 s |
| CC1CCN(C(=O)c2ccc3c(c2)n(C)c(=O)c2ccnn23)CC1 | 587 s |
| CCCN1CCN(CCNC(=O)C2CCCN(c3ncc(-c4ccc(F)cc4)cn3)C2)CC1 (centres undefined) | 641 s |
| Cc1nc(N2CCCC2)cc(N2CCN(C(=O)c3ccc(Br)o3)CC2)n1 | 645 s |
| CCSc1nnc(-c2nn(C)c3c2CN(C(=O)c2ccccc2)CC3)n1C | 716 s |
| Cn1ncc2c3ccccc3n(CCCC(=O)NCCCN3CCCC3=O)c2c1=O | 665 s |
| COc1ccc(N2CC(c3noc(-c4ccc(N(C)C)cc4)n3)CC2=O)cc1 (centres undefined) | 889 s |
| CCOc1ccc(N2CCn3c2nnc(C(=O)NCC2CCCO2)c3=O)cc1 (centres undefined) | 637 s |
| CCc1ccc(S(=O)(=O)N2CCC(n3cnnc3CC)CC2)cc1 | 746 s |
| CCc1ccc(NC(=O)N2CCC(n3cnc4cc(Cl)ccc4c3=O)CC2)cc1 | 877 s |
| Cc1noc(C)c1CC(=O)N1CC[C@@H]2CN(S(C)(=O)=O)[C@@H]2C1 | 608 s |
| CCc1nnc(-c2ccc(NC(=O)c3ccc(S(=O)(=O)N(CC)CC)cc3)cc2)o1 | 826 s |
| N#CC1=CN(c2ccc(F)c(F)c2)c2ccc(F)cc2S1(=O)=O | 934 s |
| CN(CCc1noc(C2CN(Cc3ccc(Cl)c(F)c3)C2)n1)S(C)(=O)=O | 633 s |
| O=C(c1cc(Cl)ccc1F)N1CCN(c2cc(-c3cccs3)[nH]n2)CC1 | 833 s |

More lines, now with the values ahead:

| RP-LC retention time | Compound |
| --- | --- |
| 758 s | CCOc1cccc(CNc2ncc(C(=O)O)c(C)n2)c1 |
| 1060 s | CCCCOc1ccc(C(=O)N2CCOC(c3ccccc3)C2)cc1 (centres undefined) |
| 690 s | ONC(=NCc1ccccc1)c1ccccc1 |
| 816 s | O=C(CNC(=O)c1ccccc1)NC(C(=O)N1CCCc2ccccc21)c1ccccc1 (centres undefined) |
| 899 s | CCOc1ccccc1CN1C(=O)c2ccccc2C1C(=O)NC(C)CC (centres undefined) |
| 736 s | CC(C)NC(=O)c1ccc(-c2ccsc2)nc1 |
| 992 s | Cc1nc(-c2ccc3c(c2)CCN3C(=O)c2cccc(F)c2)cs1 |
| 1280 s | Cc1nn(-c2nc(-c3ccc(F)cc3)cs2)c(C)c1CC(=O)Nc1cccc(C(F)(F)F)c1 |
| 987 s | Cc1cc(Nc2ccccc2)nn1C(=O)c1ccc([N+](=O)[O-])cc1 |
| 1160 s | Cc1ccc(-c2csc(-n3nc(C)c(CC(=O)NCc4ccccc4)c3C)n2)cc1 |
| 985 s | CC(C)n1c(=O)sc2cc(S(=O)(=O)N3CCC(C(=O)NCCc4ccccc4)CC3)ccc21 |
| 1110 s | CCCN1CCN(c2cc(C(=O)O)c3cc(NS(=O)(=O)c4ccccc4)ccc3n2)CC1 |
| 923 s | Cc1ccccc1-c1nnc(CSc2nnc(NC(=O)Cc3ccc(F)cc3)s2)o1 |
| 602 s | COCc1cc(=O)n(CC(=O)Nc2cccc(C)c2C)c(N)n1 |
| 617 s | CCc1cccc(Nc2c(C(=O)N3CCOCC3)cnc3nc(C)ccc23)c1 |
| 826 s | Cc1cccc(Cn2c(=O)n(CCNC(=O)c3cccn3C)c3ncccc32)c1 |
| 1020 s | Clc1ccccc1OCc1nn2c(CSc3ccccc3)nnc2s1 |
| 989 s | COc1ccc(-c2ncc3c(n2)CCN(C(=O)Cc2ccccc2Cl)C3)cc1 |
| 708 s | O=C(NCc1ccco1)C1CCN(c2ccc3nnc(-c4ccccc4F)n3n2)CC1 |
| 973 s | CCn1nc(-c2ccccc2)c(-c2ccccc2)c(C(=O)OC)c1=O |
| 773 s | O=C(Cn1c(=O)n(-c2ccc(F)cc2)c2ncccc21)NC1CCCC1 |
| 734 s | COCCNC(=O)Nc1nc(CSCc2cc(OC)cc(OC)c2)cs1 |

| RP-LC retention time | Compound |
| --- | --- |
| 691 s | O=C(c1ccccc1Sc1nccnc1Oc1ccccc1)N1CCN(c2ccccn2)CC1 |
| 712 s | CCN1CCN(C(=O)CN2c3ccc(C(C)C)cc3-c3ccccc3S2(=O)=O)CC1 |
| 646 s | CCOC(=O)c1ccc(NC(=O)CCc2ccc3nc(CC)[nH]c3c2)cc1 |
| 959 s | COc1ccc(NC(=O)N(C)CCc2noc(-c3ccc(Cl)cc3)n2)c(OC)c1 |
| 806 s | Cc1ccc(CNC(=O)CN2C(=O)CCn3nc(-c4cn(C)c5ccccc45)cc32)o1 |
| 846 s | COc1ccc(-c2noc(CN3CCN(c4ccccc4)CC3)n2)cc1OC |
| 703 s | COC(=O)c1ccccc1NC(=O)Cc1csc(Nc2ccccn2)n1 |
| 912 s | Cc1ccc(-c2csc3c(=O)n(CC(=O)NC4CCCC4)cnc23)cc1 |
| 614 s | CCOC(=O)c1cc(S(=O)(=O)N(C)CC(=O)N2CCN(c3ccccn3)CC2)cn1C |
| 820 s | CCn1c(=O)c(N2CCN(C(=O)NCc3ccccc3)CC2)nc2ccccc21 |
| 616 s | Cc1ccc(-c2nc3cnccn3c2NCCC(=O)NC2CC2)cc1 |
| 897 s | CCn1c(SCC(=O)Nc2nc(-c3ccccc3)cs2)nnc1-c1nonc1NC(C)=O |
| 892 s | COc1ccc(-n2c(=O)n(C)c(=O)c3cc(C(=O)Nc4ccccc4OC)cnc32)cc1 |
| 673 s | COC(=O)c1cnc2nc(C)ccc2c1Nc1cccc(F)c1 |
| 711 s | Cc1cc(Br)ccc1NC(=O)Cn1cnc2c(nc3n2CCCCC3)c1=O |
| 749 s | Cc1ccc(CNC(=O)CCc2nnc3c4cc(-c5ccccc5)nn4ccn23)o1 |
| 664 s | O=C(Cn1c(=O)c2cccn2c2ccc(F)cc21)NCCCN1CCc2ccccc2C1 |
| 984 s | CCc1nc(-c2csc(S(=O)(=O)N3CCC(C(=O)Nc4cccc(Cl)c4C)CC3)c2)no1 |
| 847 s | COc1ccc(Br)cc1CNC(=O)Cn1cc(-c2nnc(C)o2)c2ccccc21 |
| 940 s | COc1cccc(NC(=O)Cn2cccc2-c2nnc(-c3ccccc3)o2)c1 |
| 656 s | CCCN1C(=O)c2[nH]nc(-c3ccc(OC)cc3)c2C1c1cccnc1 (centres undefined) |
| 854 s | COc1ccc(OC)c(S(=O)(=O)N2CCCC(C(=O)NCc3ccccc3OC)C2)c1 (centres undefined) |
